# US8624079B2, “Knockin mouse with a disruption in a PXR gene expressing human PXR” (ITI Scotland Limited, priority 2007, dated 2014)
# “And” between values parts separate entries of the source, which are not always exact repeats. Identical values can stand only once.
# Columns and labels:
# Cyp3a11 [1] = assay: Midazolam metabolism in koCyp3a11 mice; conditions: male koCyp3a11 mice compared to male wild type mice
# Description: The also inventors studied the pharmacokinetics of midazolam (MDZ; metabolisation to form 1-hydroxymidazolam) in male koCyp3a11 mice, in comparison to male wild type mice.
# [2] = wild-type, koPXR or koCAR mice; 40 mg/kg
# Description: For the same animals, plasma levels of alanine aminotransferase (ALT), alkaline phosphatase (ALP) and aspartate aminotransferase (AST) were also measured (see FIG. 40). […] Both compounds were administered at 40 mg/kg.
# Plasma levels of alanine aminotransferase (ALT), alkaline phosphatase (ALP) and aspartate aminotransferase (AST) were also measured (see FIG. 46).
# Cyp2b10 [3] = assay: pentoxyresorufin-O-deethylation (PROD) and BROD activity assay in liver microsomes of treated mice; conditions: for BROD and PROD activities (Cyp2b10 / P450 induction): WT and huPXR/huCAR mice
# Cyp3a11 [4] = assay: Cyp3a11 protein expression in liver microsomes of treated mice by SDS-PAGE and Western blotting; conditions: mouse, in vivo, 40 mg/kg
# Description: (§1) Dosing solutions were prepared on the day of administration by adding corn oil to the requisite quantity of test substance and stirring to obtain a solution or fine suspension. The concentration of PCN was 10 mg/ml and Rif 2.5 mg/ml of supplied chemical, without any correction for purity. Records of preparation were retained.
# The volume of vehicle and solutions of inducing agents administered was 10 ml/kg bodyweight. This route of administration was chosen for consistency with previously published work. […]
# (§2) Quantification of Cyp3a11, Cyp2b10 and PXR protein in liver microsomes of all mice samples was carried out by SDS-PAGE and Western blotting. To detect murine and human PXR protein, an antibody (RF8) was employed. For the identification of Cyp3a and Cyp2b, […] were used, (CH32 and CH4, respectively).
# liver [5] = assay: TUNEL labelling assay (hepatic in situ cell death); format: in vivo, mouse; conditions: WT, huPXR/huCAR and PXRKO/CARKO mice; PB 80 mg/kg ip daily for 4 days
# Description: However, no such consistency has been observed in mice. An indirect TUNEL labelling assay was used to analyse hepatic in situ death (FIG. 128/Table 4). The present study has shown a marker variation in apoptotic indices in mouse liver. Thus, small (e.g. 50%) compound-induced decreases, upon a low background, were not readily demonstrable.
# [6] = Liver/body weight ratios (hepatomegaly); format: in vivo, mouse; conditions: PB 80 mg/kg ip daily for 4 days; for Body weight (g) - Day 5 / Liver weight / Liver/Body weight Ratio: Mean ± SD; for hepatomegaly: WT and huPXR/huCAR mice
# Description: Post operation all animals had no abnormalities detected.
# Cyp1a1/1a2 and Cyp1b1 = assay: MROD and EROD activity in liver microsomes of treated mice; conditions: PB 80 mg/kg ip daily for 4 days
# Description: EROD activity is indicative of Cyp1a1/1a2 and Cyp1b1 in the mouse, whereas MROD is a substrate for Cyp1a2. However, other isoforms may be contributing to the measured activities. The results from the two enzyme assays are in reasonably good agreement with each other (FIG. 130a-b) As the Cyp1a2 gene is constitutively expressed, this may explain the basal levels of activity observed in both activity assays.
# liver [7] = assay: H&E histopathology of liver and small intestine; format: in vivo, mouse
# Description: Two samples of the liver (one from the lobe, one from the median lobe) and one sample of the small intestine were taken and preserved in 4% neutral buffered formaldehyde (NBF). The preserved liver samples of all mice of all groups were trimmed, processed and embedded in paraffin. The paraffin-embedded samples were sent to Progenix, Inverkeithing, UK where they were sectioned at a nominal thickness of about 5 áem and then stained with haematoxylin and eosin (H&E). One section of each organ sample was examined by Dr. Ortwin Vogel, Consultant Pathologist, Kiel, Germany. Subsequent to his histopatholoical analysis of all H&E stained mouse livers and small intestines, Dr. Vogel reported the following finding;
# Cyp2b10 [8] = assay: Cyp2b10 protein expression of treated mice by SDS-PAGE and Western blotting; conditions: for Cyp2b10 protein in pooled liver microsomes (Western blot): PB 80 mg/kg ip daily for 4 days
# Description: as §1
# Control animals were administered vehicle (corn oil) daily by intraperitoneal injection. The volume of vehicle and solutions of inducing agents administered was 10 ml/kg bodyweight. This route of administration was chosen for consistency with previously published work. […]
# as §2
# liver cells = assay: BrdU incorporation in liver (hepatic cell proliferation, S-phase labelling index); format: in vivo, mouse; conditions: for % BrDu Positive Cells, % mean (of own control) / % BrDu Positive Cells, Mean / % BrDu Positive Cells (individual mouse): liver; for cell proliferation (BrdU positive cells): huPXR/huCAR or PXRKO/CARKO mice
# Cyp3a11 and Cyp2b10 = assay: Comparative induction study in PXR/CAR humanised and knockout panel (Cyp3a11, Cyp2b10 protein, BQ and PROD activity); conditions: mice in which CAR had been knocked out; 40 mg/kg
# Description: The effects of phenobarbital on Cyp3a11 and Cyp2b10 induction were compared in wild type, huPXR, koPXR, huCAR, koCAR, huPXR/huCAR, koPXR/koCAR huPXR/koCAR and koPXR/huCAR mice (see FIG. 87).
# Cyp3a = assay: 7-benzyloxyquinoline (BQ) activity assay in liver microsomes of treated mice; conditions: PB 80 mg/kg ip daily for 4 days
# Description: PXR activity was determined by measuring the metabolism of a number of cytochrome P450 substrates which are metabolised to different extents by different cytochrome P450 enzymes. The following assays were performed: • 7-benzyloxyquinoline (BQ) activity was determined in liver microsomes. • Testosterone hydroxylase activity was determined in liver microsomes (LMS HPLC-006). • The specific activities of these reactions was expressed per mg protein as determined using the Lowry assay (LMS Spec-0001).
# [9] = wild type mice; rifampicin 10 mg/kg per day for 3 days before midazolam
# [10] = PXRKO/CARKO mice, PB 80 mg/kg ip daily for 4 days, listed as PB
# [11] = PB 80 mg/kg ip daily for 4 days
# [12] = PB 80 mg/kg ip daily for 4 days, listed as PB
# [13] = PXRKO/CARKO mice, PB 80 mg/kg ip daily for 4 days
# [14] = WT mice, PB 80 mg/kg ip daily for 4 days
# [15] = huPXR/huCAR mice, PB 80 mg/kg ip daily for 4 days
structure (smiles),measurement,setting,value
Cc1ncc2n1-c1ccc(Cl)cc1C(c1ccccc1F)=NC2 [midazolam],1-hydroxymidazolam formation,Cyp3a11 [1],significantly reduced
"CCC1(c2ccccc2)C(=O)NC(=O)NC1=O [phenobarbital, Phenobarbital]","hepatotoxicity (liver/body weight ratio, plasma ALT, ALP, AST)",[2],No hepatotoxicity was detected
same,PROD or BROD activities (Cyp2b10 / P450 induction),Cyp2b10 [3]; [10],not altered
same,BROD and PROD activities (Cyp2b10 / P450 induction),Cyp2b10 [3]; [11],led to both hepatomegaly and P450 induction
same,BROD and PROD activities (Cyp2b10 / P450 induction),Cyp2b10 [3]; [12],"marker Cyp2b10 induction was observed, at similar levels"
same,Cyp3a11 expression in liver (Western blot),Cyp3a11 [4],significantly reduced
same,"hepatic apoptotic indices (TUNEL), PB-treated vs control",liver [5],no statistical significance found
same,Body weight - Day 5 (% mean own control ± % SD),[6]; PXRKO/CARKO mice,(98 ± 8) %
same,Liver weight (% mean own control ± % SD),[6]; PXRKO/CARKO mice,(98 ± 16) %
same,Liver/Body weight Ratio (% mean own control ± % SD),[6]; PXRKO/CARKO mice,(100 ± 9) %
same,Body weight (g) - Day 5,[6]; PXRKO/CARKO mice,26.6 ± 2.2 g
same,Liver weight,[6]; PXRKO/CARKO mice,1.42 ± 0.23 g
same,Liver/Body weight Ratio,[6]; PXRKO/CARKO mice,5.3 ± 0.4
same,hepatomegaly,[6],led to both hepatomegaly and P450 induction
same,hepatomegaly,[6]; listed as PB,observed
same,Body weight - Day 5 (% mean own control ± % SD),[6]; WT mice,(84 ± 5) %
same,Liver weight (% mean own control ± % SD),[6]; WT mice,(101 ± 6) %
same,Body weight (g) - Day 5,[6]; WT mice,23.2 ± 1.3 g
same,Liver weight,[6]; WT mice,1.44 ± 0.09 g
same,Liver/Body weight Ratio,[6]; WT mice,6.2 ± 0.2
same,Body weight - Day 5 (% mean own control ± % SD),[6]; huPXR/huCAR mice,(99 ± 6) %
same,Liver weight (% mean own control ± % SD),[6]; huPXR/huCAR mice,(121 ± 11) %
same,Body weight (g) - Day 5,[6]; huPXR/huCAR mice,25.4 ± 1.5 g
same,Liver weight,[6]; huPXR/huCAR mice,1.69 ± 0.16 g
same,Liver/Body weight Ratio,[6]; huPXR/huCAR mice,6.7 ± 0.6
same,MROD and EROD enzyme activities,Cyp1a1/1a2 and Cyp1b1; PXRKO/CARKO line,no increase
same,MROD and EROD enzyme activities,Cyp1a1/1a2 and Cyp1b1; WT and huPXR/huCAR mice,increased
same,"hepatocellular hypertrophy (H&E, microscopic)",liver [7]; [13],no unequivocal evidence of a hepatocellular hypertrophy
same,pathological evidence in liver (pathologist's conclusion),"liver [7]; PXRKO/CARKO strain, PB 80 mg/kg/4days/IP",Evidence of hepatocellular hyperplasia occurred
same,pathological evidence in liver (pathologist's conclusion),"liver [7]; WT and huPXR/huCAR strain, PB 80 mg/kg/4days/IP",pathological evidence of a hepatocellular hypertrophy/hyperplasia
same,mitotic figures indicating hepatocellular proliferation (H&E),"liver [7]; WT, huPXR/huCAR and PXRKO/CARKO mice, PB 80 mg/kg ip daily for 4 days",noted mainly in PB-treated WT mice
same,microscopic findings in the small intestine,"liver [7]; all mouse lines, PB 80 mg/kg/4days/IP",No microscopic findings were recorded in the small intestine
same,"hepatocellular hypertrophy (H&E, microscopic)","liver [7]; huPXR/huCAR and WT mice, PB 80 mg/kg ip daily for 4 days",slight to moderate centrilobular hepatocellular hyperthrophy
same,Cyp2b10 protein in pooled liver microsomes (Western blot),Cyp2b10 [8]; PXRKO/CARKO mice,not in the PXRKO/CARKO animals
same,Cyp2b10 protein in pooled liver microsomes (Western blot),Cyp2b10 [8]; WT and huPXR/huCAR mice,induced
same,Cyp2b10 expression in liver (Western blot),"Cyp2b10 [8]; koCAR mice, 40 mg/kg",significantly reduced
same,"Cyp2b10 expression (Western blot and PROD activity, liver)","Cyp2b10 [8]; wild-type and huCAR mice, 40 mg/kg",induced Cyp2b10 expression both in the wild-type and in huCAR mice
same,"% BrDu Positive Cells, % mean (of own control)",liver cells; [13],144%
same,"% BrDu Positive Cells, Mean",liver cells; [13],2.83%
same,% BrDu Positive Cells (individual mouse),liver cells; [10],2.16% and 1.98% and 1.82% and 2.30% and 3.77% and 5.10% and 3.71% and 1.88% and 3.06% and 2.51%
same,increase of hepatocellular labelling index (S-phase),liver cells; [14],approximately 5 fold
same,"% BrDu Positive Cells, % mean (of own control)",liver cells; [14],531%
same,"% BrDu Positive Cells, Mean",liver cells; [14],9.30%
same,% BrDu Positive Cells (individual mouse),"liver cells; WT mice, PB 80 mg/kg ip daily for 4 days, listed as PB",9.45% and 5.54% and 16.69% and 6.32% and 9.50% and 8.09% and 7.64% and 13.60%
same,"% BrDu Positive Cells, % mean (of own control)",liver cells; [15],104%
same,"% BrDu Positive Cells, Mean",liver cells; [15],2.00%
same,% BrDu Positive Cells (individual mouse),"liver cells; huPXR/huCAR mice, PB 80 mg/kg ip daily for 4 days, listed as PB",0.37% and 0.-18% and 1.19% and 1.86% and 3.GO and 1.98% and 3.18% and 3.24% and 2.13%
same,cell proliferation (BrdU positive cells),liver cells; [11],No increase in BrdU positive cells was observed
same,cell proliferation (BrdU positive cells),liver cells; [12],appeared to have no effect on cell proliferation
same,hepatocellular proliferation (% BrdU-positive cells),"liver cells; wild-type mice, phenobarbital vs unexposed control",hepatocellular proliferation only in wild-type mice
same,induction of Cyp3a11 and Cyp2b10 protein expression or activity in the BQ and PROD assays,Cyp3a11 and Cyp2b10,Little or no induction
same,Cyp3a11 induction (BQ activity),Cyp3a; PXRKO/CARKO mice,absence of Cyp3a11 induction
same,increase in BQ activity,Cyp3a; WT mice,marginal increase
same,increase in BQ activity,Cyp3a; huPXR/huCAR mice,5 fold
CO[C@H]1/C=C/O[C@@]2(C)Oc3c(C)c(O)c4c(O)c(c(/C=N/N5CCN(C)CC5)c(O)c4c3C2=O)NC(=O)/C(C)=C\C=C\[C@H](C)[C@H](O)[C@@H](C)[C@@H](O)[C@@H](C)[C@H](OC(C)=O)[C@@H]1C [rifampicin],induction of Cyp2b10 activity,"Cyp2b10 [3]; wild-type or huPXR mice, rifampicin",did not induce
same,induction of Cyp2b10 expression,"Cyp2b10 [8]; mouse, in vivo",did not induce
same,induction of Cyp2b10 expression and PROD activity,"Cyp2b10 [8]; mouse, in vivo","only in the huPXR.1 mouse, but not in the wild type or in the huPXR mouse"
same,induction of Cyp2b10 protein (Western blot),"Cyp2b10 [8]; mouse, in vivo, ip",not markedly induced
same,effect of rifampicin pre-treatment on midazolam pharmacokinetics,[9],no significant effect was observed
